Laboratory results: ChEMBL document CHEMBL1155585, “Cypellocarpins A-C, phenol glycosides esterified with oleuropeic acid, from Eucalyptus cypellocarpa” (J Nat Prod, 2000)

Columns and labels:
Mus musculus [1] = organism: Mus musculus; assay: Antitumor activity against (+/-)-(E)-4-methyl-2-[(E)-hydroxyimino]-6-methoxy-5-nitro-3-hexenamide/TPA-induced carcinogenesis in mouse assessed as reduction in number of tumor bearing mouse at 50 molar ratio/TPA after 10 weeks relative to control; assay type: functional; design: scale not given: the % may be the effect or the level left
[2] = Cytotoxicity against human Raji cells assessed as cell viability at 1000 molar ratio/TPA; assay type: cell-based; settings: read-out: Activity
Mus musculus [3] = organism: Mus musculus; assay: Antitumor activity against (+/-)-(E)-4-methyl-2-[(E)-hydroxyimino]-6-methoxy-5-nitro-3-hexenamide/TPA-induced carcinogenesis in mouse assessed as reduction in number of tumor bearing mouse at 50 molar ratio/TPA after 20 weeks relative to control; assay type: functional; design: scale not given: the % may be the effect or the level left

Compound | Activity (Mus musculus [1]) [%] | viability at 1000 molar ratio/TPA [2] [%] | Activity (Mus musculus [3]) [%]
Cc1c(O[C@@H]2O[C@H](CO)[C@@H](O)[C@H](O)[C@H]2O)c(C=O)c(O)c2c1OC(C)(C)C=C2 | 30 | 60 | 
Cc1cc(=O)c2c(O)cc(O[C@@H]3O[C@H](COC(=O)C4=CC[C@H](C(C)(C)O)CC4)[C@@H](O)[C@H](O)[C@H]3O)cc2o1 [CYPELLOCARPA C] | 30 | 70 | 
CC(C)(O)[C@H]1CC=C(C(=O)OC[C@H]2O[C@@H](Oc3cc(C(=O)O)cc(O)c3O)[C@H](O)[C@@H](O)[C@@H]2O)CC1 [CYPELLOCARPIN A] |  | 70 | 
CC1(O)CC(=O)c2c(O)cc(O[C@@H]3O[C@H](COC(=O)C4=CC[C@H](C(C)(C)O)CC4)[C@@H](O)[C@H](O)[C@H]3O)cc2O1 (stereo partly drawn) [CYPELLOCARPIN B] | 30 | 70 | 58
